This note sets out measurements from EP1180094B1, “FUSED POLYCYCLIC AMINO ACIDS AS PHARMACEUTICAL AGENTS” (WARNER-LAMBERT COMPANY, priority 1999, dated 2000).

The test system of assay [1] is carrageenan-induced hyperalgesia model. Put plainly: Carrageenin-induced hyperalgesia, rat paw pressure test (Randall-Selitto). The format is in vivo. As to conditions: dosed orally at 30 mg/kg. How it is done:
Nociceptive pressure thresholds were measured in the rat paw pressure test using an analgesimeter (Randall-Selitto method: Randall L.O. and Selitto J.J., "A method for measurement of analgesic activity on inflamed tissue," Arch. Int. Pharmacodyn., 1957;4:409-419). Male Sprague-Dawley rats (70-90 g) were trained on this apparatus before the test day. Pressure was gradually applied to the hind paw of each rat and nociceptive thresholds were determined as the pressure (g) required to elicit paw withdrawal. A cutoff point of 250 g was used to prevent any tissue damage to the paw. On the test day, two to three baseline measurements were taken before animals were administered 100 µL of 2% carrageenin by intraplantar injection into the right hind paw. […] Animals were dosed with either gabapentin ([…].), morphine (3 mg/kg, s.c.) or saline at 3.5 hours after carrageenin and nociceptive thresholds were examined at 4, 4.5, and 5 hours postcarrageenin.
(R)-2-Aza-spiro[4.5]decane-4-carboxylic acid hydrochloride was tested in the above carrageenan-induced hyperalgesia model. The compound was dosed orally at 30 mg/kg, and 1 hour postdose gave a percent of maximum possible effect (MPE) of 53%. At 2 hours postdose, it gave only 4.6% of MPE.
A general note: The carrageenan paw model is a standard test of acute inflammation.

For assay [2], the system named is Carrageenan Induced Thermal Hyperalgesia Model (rat). Put plainly: Carrageenan induced thermal hyperalgesia model. The format is in vivo.

SMILES strings stand for the structures.

As to `Cl.O=C(O)[C@H]1CNCC12CCCCC2` [(R)-2-Aza-spiro[4.5]decane-4-carboxylic acid hydrochloride], the “percent of maximum possible effect (MPE)” value was found to be 53% in assay [1] (1 hour postdose) and 4.6% in assay [1] (2 hours postdose).

With `NCC1(CC(=O)O)Cc2ccccc2C1` [(2-aminomethyl-indan-2-yl)-acetic acid], the “Carrageenan Induced Thermal Hyperalgesia Model (rat). %MPE* at time postdose @30 mg/Kg p.o.” value is recorded as 28.5 (1h) %MPE in assay [2] (1h postdose) and 10 (2h) %MPE in assay [2] (2h postdose).
